For one assay, the target named is B-Raf (Homo sapiens, UniProt P15056). The assay is described as follows: Luciferase-coupled chemiluminescence kinase assay (ATP consumption), B-Raf. It counts as biochemical. Summed up: (§1)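 Raf enzyme ([…]) pre-incubated with compound 30 minutes at room temperature in 20 mM Tris pH 7.5, 10 mM MgCl2, 0.03% TX-100, 1 mM DTT, then reacted with ATP for 3 hrs at ambient temperature. Remaining ATP quantified by luciferase-luciferin chemiluminescence, consumption held at 25-60%; IC50 reported.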
Chain of B-Raf (P15056 whole entry): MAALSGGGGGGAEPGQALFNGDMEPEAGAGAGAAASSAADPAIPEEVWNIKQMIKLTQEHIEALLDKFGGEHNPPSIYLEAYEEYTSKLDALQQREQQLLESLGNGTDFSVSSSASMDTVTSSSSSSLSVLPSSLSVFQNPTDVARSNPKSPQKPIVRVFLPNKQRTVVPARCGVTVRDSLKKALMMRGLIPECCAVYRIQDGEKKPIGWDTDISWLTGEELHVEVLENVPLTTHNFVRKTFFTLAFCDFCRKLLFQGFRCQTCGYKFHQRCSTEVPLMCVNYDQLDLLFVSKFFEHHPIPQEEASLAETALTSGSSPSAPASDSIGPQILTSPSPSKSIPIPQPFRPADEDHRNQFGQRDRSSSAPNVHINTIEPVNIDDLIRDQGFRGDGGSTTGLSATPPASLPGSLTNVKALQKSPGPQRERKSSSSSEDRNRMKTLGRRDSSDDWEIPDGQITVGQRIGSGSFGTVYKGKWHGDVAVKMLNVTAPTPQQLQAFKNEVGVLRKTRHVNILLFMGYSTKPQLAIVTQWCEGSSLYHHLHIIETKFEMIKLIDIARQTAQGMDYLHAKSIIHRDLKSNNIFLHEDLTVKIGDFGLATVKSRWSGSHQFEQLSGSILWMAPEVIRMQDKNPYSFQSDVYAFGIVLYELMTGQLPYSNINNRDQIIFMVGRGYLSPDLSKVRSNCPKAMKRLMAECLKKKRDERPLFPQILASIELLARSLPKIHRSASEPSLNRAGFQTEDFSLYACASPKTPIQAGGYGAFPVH

The next assay deals with c-Raf (Homo sapiens, UniProt P04049). Nature of the assay: Luciferase-coupled chemiluminescence kinase assay (ATP consumption), c-Raf. Type of assay: biochemical. Summed up: as §1
Chain of c-Raf (P04049 whole entry): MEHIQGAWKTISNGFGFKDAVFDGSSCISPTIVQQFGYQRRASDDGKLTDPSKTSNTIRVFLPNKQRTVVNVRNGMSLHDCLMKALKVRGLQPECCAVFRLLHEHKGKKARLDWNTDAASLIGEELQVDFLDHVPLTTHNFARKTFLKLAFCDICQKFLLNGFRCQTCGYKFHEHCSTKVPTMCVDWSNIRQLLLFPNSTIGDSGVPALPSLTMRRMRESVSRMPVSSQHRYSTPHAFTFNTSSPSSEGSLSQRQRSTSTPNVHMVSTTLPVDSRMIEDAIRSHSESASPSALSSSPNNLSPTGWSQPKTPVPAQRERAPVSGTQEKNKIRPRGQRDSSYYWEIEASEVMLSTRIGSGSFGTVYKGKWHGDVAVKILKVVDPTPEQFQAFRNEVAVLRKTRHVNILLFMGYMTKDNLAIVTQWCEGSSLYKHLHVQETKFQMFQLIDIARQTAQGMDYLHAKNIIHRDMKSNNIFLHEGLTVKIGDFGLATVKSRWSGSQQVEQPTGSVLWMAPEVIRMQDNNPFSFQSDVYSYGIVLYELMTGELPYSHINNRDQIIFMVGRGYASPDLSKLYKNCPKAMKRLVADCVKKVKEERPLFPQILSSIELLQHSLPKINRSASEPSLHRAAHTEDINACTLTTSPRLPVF
Setting [1] is: read-out: bRaf (inhibition indicated as IC50).
Setting [2] is: read-out: cRaf-1 (inhibition indicated as IC50).

The text below walks through data of patent US7846959B2, “Raf modulators and methods of use” (Exelixis, Inc., priority 2004, dated 2010).

Like-named read-outs stand apart in the source and are kept apart here. Bounds are passed on as bounds.

What is called IC50 is the concentration needed to halve the response being measured. With `COC(=O)Nc1nc2ccc(C3(O)c4ccccc4C(=O)N3Cc3ccccc3)cc2n1C` (stereo not drawn) [Entry 107, methyl {6-[1-hydroxy-3-oxo-2-(phenylmethyl)-2,3-dihydro-1H-isoindol-1-yl]-1-methyl-1H-benzimidazol-2-yl}carbamate], the IC50 at B-Raf (read-out: bRaf IC50) and on c-Raf (read-out: cRaf-1 IC50) was no less than 10000 nM throughout.
With `O=C1COc2ccc(C3(O)c4ccccc4C(=O)N3Cc3cccc(F)c3)cc2N1` (stereo not drawn) [Entry 36, 6-{2-[(3-fluorophenyl)methyl]-1-hydroxy-3-oxo-2,3-dihydro-1H-isoindol-1-yl}-2H-1,4-benzoxazin-3(4H)-one], the IC50 on B-Raf (read-out: bRaf IC50) and at c-Raf (read-out: cRaf-1 IC50) was 1000 to 10000 nM in each case.
Take `COC(=O)Nc1nc2cc(C3(O)c4ccccc4C(=O)N3Cc3ccco3)ccc2[nH]1` (stereo not drawn) [Entry 205, methyl {5-[2-(furan-2-ylmethyl)-1-hydroxy-3-oxo-2,3-dihydro-1H-isoindol-1-yl]-1H-benzimidazol-2-yl}carbamate]: the IC50 on B-Raf (read-out: bRaf IC50) and on c-Raf (read-out: cRaf-1 IC50) was less than 100 nM throughout.
Turning to `COC(=O)Nc1nc2cc(C3(O)c4ccccc4C(=O)N3CC3CCCO3)ccc2[nH]1` (stereo not drawn) [Entry 216, methyl {5-[1-hydroxy-3-oxo-2-(tetrahydrofuran-2-ylmethyl)-2,3-dihydro-1H-isoindol-1-yl]-1H-benzimidazol-2-yl}carbamate], the IC50 at B-Raf (read-out: bRaf IC50) and at c-Raf (read-out: cRaf-1 IC50) was 100 to 1000 nM throughout.
`O=C1COc2ccc(C3(O)c4ccccc4C(=O)N3c3cccc(I)c3)cc2N1` (stereo not drawn) [Entry 40, 6-[1-hydroxy-2-(3-iodophenyl)-3-oxo-2,3-dihydro-1H-isoindol-1-yl]-2H-1,4-benzoxazin-3(4H)-one]: the figures for the IC50 at B-Raf (read-out: bRaf IC50) and on c-Raf (read-out: cRaf-1 IC50) were 100 to 1000 nM and less than 100 nM, respectively.
The like results for `O=C1COc2ccc(C3(O)c4ccccc4C(=O)N3c3cccc(Br)c3)cc2N1` (stereo not drawn) [Entry 41, 6-[2-(3-bromophenyl)-1-hydroxy-3-oxo-2,3-dihydro-1H-isoindol-1-yl]-2H-1,4-benzoxazin-3(4H)-one] were, in that order, 100 to 1000 nM and less than 100 nM.
For `O=C1COc2ccc(C3(O)c4ccccc4C(=O)N3c3cccc(C(F)(F)F)c3)cc2N1` (stereo not drawn) [Entry 61, 6-{1-hydroxy-3-oxo-2-[3-(trifluoromethyl)phenyl]-2,3-dihydro-1H-isoindol-1-yl}-2H-1,4-benzoxazin-3(4H)-one], the IC50 on B-Raf (read-out: bRaf IC50) was in the range of 1000 to 10000 nM; on c-Raf (read-out: cRaf-1 IC50), 100 to 1000 nM.
For `COC(=O)Nc1nc2cc(C3(O)c4ccccc4C(=O)N3c3cccc(I)c3F)ccc2[nH]1` (stereo not drawn) [Entry 362, methyl {5-[2-(2-fluoro-3-iodophenyl)-1-hydroxy-3-oxo-2,3-dihydro-1H-isoindol-1-yl]-1H-benzimidazol-2-yl}carbamate], the IC50 on B-Raf (setting [1]) and on c-Raf (setting [2]) was less than 100 nM in each case.
For the molecule `O=C1COc2ccc(C3(O)c4ccccc4C(=O)N3Cc3ccccc3C(F)(F)F)cc2N1` (stereo not drawn) [Entry 50, 6-(1-hydroxy-3-oxo-2-{[2-(trifluoromethyl)phenyl]methyl}-2,3-dihydro-1H-isoindol-1-yl)-2H-1,4-benzoxazin-3(4H)-one], the IC50 at B-Raf (read-out: bRaf IC50) and at c-Raf (read-out: cRaf-1 IC50) was no less than 10000 nM each time.
For the molecule `C#CCCC(=O)Nc1nc2ccc(C(=O)c3ccccc3C(=O)Nc3ccc(F)cc3)cc2[nH]1` [Entry 276, N-(4-fluorophenyl)-2-{[2-(pent-4-ynoylamino)-1H-benzimidazol-6-yl]carbonyl}benzamide], the IC50 at B-Raf (setting [1]) and at c-Raf (setting [2]) was less than 100 nM in each case.
`COC(=O)Nc1nc2cc(C3(O)c4ccccc4C(=O)N3c3cccc(Oc4ccccc4)c3)ccc2[nH]1` (stereo not drawn) [Entry 220, methyl (5-{1-hydroxy-3-oxo-2-[3-(phenyloxy)phenyl]-2,3-dihydro-1H-isoindol-1-yl}-1H-benzimidazol-2-yl)carbamate]: the IC50 at B-Raf (read-out: bRaf IC50) and at c-Raf (read-out: cRaf-1 IC50) was less than 100 nM throughout.
In the case of `O=C(Nc1nc2cc(C3(O)c4ccccc4C(=O)N3c3cccc(Cl)c3F)ccc2[nH]1)C1CCC1` (stereo not drawn) [Entry 327, N-{5-[2-(3-chloro-2-fluorophenyl)-1-hydroxy-3-oxo-2,3-dihydro-1H-isoindol-1-yl]-1H-benzimidazol-2-yl}cyclobutanecarboxamide], the half-maximal inhibitory concentration (IC50) on B-Raf (setting [1]) and at c-Raf (setting [2]) was less than 100 nM each time.
As for `COC(=O)Nc1nc2cc(C3(O)c4ccccc4C(=O)N3c3cc(C)cc(C(F)(F)F)c3)ccc2[nH]1` (stereo not drawn) [Entry 175, methyl (5-{1-hydroxy-2-[3-methyl-5-(trifluoromethyl)phenyl]-3-oxo-2,3-dihydro-1H-isoindol-1-yl}-1H-benzimidazol-2-yl)carbamate], the IC50 on B-Raf (read-out: bRaf IC50) and at c-Raf (read-out: cRaf-1 IC50) was less than 100 nM throughout.
For the molecule `O=C(Nc1nc2ccc(C3(O)c4ccccc4C(=O)N3c3cccc(Cl)c3F)cc2[nH]1)OCCCN1CCCCC1` (stereo not drawn) [Entry 294, 3-piperidin-1-ylpropyl {6-[2-(3-chloro-2-fluorophenyl)-1-hydroxy-3-oxo-2,3-dihydro-1H-isoindol-1-yl]-1H-benzimidazol-2-yl}carbamate], the IC50 on B-Raf (setting [1]) and on c-Raf (setting [2]) was 1000 to 10000 nM in each case.
Regarding `O=C(CC(O)(C(F)(F)F)C(F)(F)F)Nc1nc2cc(C3(O)c4ccccc4C(=O)N3Cc3ccccc3)ccc2[nH]1` (stereo not drawn) [Entry 218, 4,4,4-trifluoro-3-hydroxy-N-{5-[1-hydroxy-3-oxo-2-(phenylmethyl)-2,3-dihydro-1H-isoindol-1-yl]-1H-benzimidazol-2-yl}-3-(trifluoromethyl)butanamide], the 50% inhibitory concentration (IC50) at B-Raf (read-out: bRaf IC50) and on c-Raf (read-out: cRaf-1 IC50) was 1000 to 10000 nM in each case.
As for `COC(=O)Nc1nc2cc(C3(O)c4ccccc4C(=O)N3c3cccc(Cl)c3C)ccc2[nH]1` (stereo not drawn) [Entry 284, methyl {5-[2-(3-chloro-2-methylphenyl)-1-hydroxy-3-oxo-2,3-dihydro-1H-isoindol-1-yl]-1H-benzimidazol-2-yl}carbamate], the 50% inhibitory concentration (IC50) on B-Raf (setting [1]) and at c-Raf (setting [2]) was less than 100 nM each time.
For the molecule `COC(=O)Nc1nc2cc(C3(O)c4ccccc4C(=O)N3c3cc(Cl)ccc3OC)ccc2[nH]1` (stereo not drawn) [Entry 310, methyl (5-{2-[5-chloro-2-(methyloxy)phenyl]-1-hydroxy-3-oxo-2,3-dihydro-1H-isoindol-1-yl}-1H-benzimidazol-2-yl)carbamate], the concentration for half-maximal inhibition (IC50) on B-Raf (setting [1]) and on c-Raf (setting [2]) was less than 100 nM each time.
Turning to `O=C(Nc1nc2cc(C3(O)c4ccccc4C(=O)N3Cc3ccccc3)ccc2[nH]1)OCCF` (stereo not drawn) [Entry 126, 2-fluoroethyl {5-[1-hydroxy-3-oxo-2-(phenylmethyl)-2,3-dihydro-1H-isoindol-1-yl]-1H-benzimidazol-2-yl}carbamate], the IC50 at B-Raf (read-out: bRaf IC50) and on c-Raf (read-out: cRaf-1 IC50) was less than 100 nM throughout.
